From US20230302083A1, “HIGHLY-NETWORKED C[…] COMPOSITION” (priority 2020, published 2023)

What was measured:
[1] = target: T1, HLA-A*0301 (Homo sapiens, UniProt P04439); test: HLA class I-peptide stability assay in TAP-deficient HLA-A*0301 mono-allelic cells; assay type: cell-based
T1 construct: expressed in transfected cells; host or cells: TAP-deficient (CRISPR/Cas9) HLA-A*0301 mono-allelic 721.221 human B cells

[2] = test system: HLA class I alleles; assay type: cell-based, human

| Sequence | HLA-A*0301 stabilization [1] | 50% Experimental Binder [2] | further results |
| --- | --- | --- | --- |
| KGIYQTSNFR [A3 COVID 15] | HLA stabilizing |  |  |
| MIAQYTSAL [B7 COVID 16] |  |  | stabilization of HLA class I alleles [2]: stabilized a number of HLA class I alleles |
| NPLLYDANYFL [B81 COVID 14] |  | YES |  |
| RVIHFGAGSDK [A3 COVID 3] | HLA stabilizing |  |  |
| YQDVNCTEV [B39 COVID 11] |  | YES |  |
